{
  "source": "paper PMC11521726",
  "about": "“Surface plasmon resonance, molecular docking, and molecular dynamics simulation studies of lysozyme interaction with tannic acid” (Food Science & Nutrition, 2024)",
  "target": "T1, Chicken egg white lysozyme (CEWLZM) (Gallus gallus, UniProt P00698)",
  "T1 construct": "gene LYZ",
  "T1 sequence (P00698 19-147)": "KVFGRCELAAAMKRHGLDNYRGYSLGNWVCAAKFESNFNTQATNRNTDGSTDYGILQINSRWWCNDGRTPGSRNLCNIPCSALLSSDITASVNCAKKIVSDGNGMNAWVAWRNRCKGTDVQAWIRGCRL",
  "test": "SPR kinetics, CEWLZM amine-coupled on MUA gold chip, TA […], PBS pH […]°C",
  "type": "binding",
  "data": [
    {"smiles": "O=C(OC[C@H]1O[C@@H](OC(=O)c2cc(O)c(O)c(OC(=O)c3cc(O)c(O)c(O)c3)c2)[C@H](OC(=O)c2cc(O)c(O)c(OC(=O)c3cc(O)c(O)c(O)c3)c2)[C@@H](OC(=O)c2cc(O)c(O)c(OC(=O)c3cc(O)c(O)c(O)c3)c2)[C@@H]1OC(=O)c1cc(O)c(O)c(OC(=O)c2cc(O)c(O)c(O)c2)c1)c1cc(O)c(O)c(OC(=O)c2cc(O)c(O)c(O)c2)c1", "note": "[TA, tannic acid]", "values": [
      {"measurement": "Kd", "result": 41.7, "unit": "µM"}
    ]}
  ]
}
